Assay results reported in the kinase profiling compilation of Christmann-Franck et al. (2016).

What was measured:
Experiment in all cases: radiometric filter-binding kinase assay, Kinase HotSpot
WNK3 (human) = WNK3 (human) (UniProt Q9BYP7); conditions: compound 0.5 µM; ATP 10 µM
PLK2 (human) = PLK2 (human) (UniProt Q9NYY3); conditions: compound 0.5 µM; ATP 10 µM
CDK1 CCNB1 (human) = CDK1 CCNB1 (human) (UniProt P06493+P14635); conditions: compound 0.5 µM
FGFR4 (human) = FGFR4 (human) (UniProt P22455); conditions: compound 0.5 µM; ATP 10 µM
CDC42BPA (human) = CDC42BPA (human) (UniProt Q5VT25); conditions: compound 0.5 µM; ATP 10 µM
RPS6KA4 KD2 (human) = RPS6KA4 KD2 (human) (UniProt O75676); conditions: compound 0.5 µM; ATP 10 µM
CAMK2B (human) = CAMK2B (human) (UniProt Q13554); conditions: compound 0.5 µM; ATP 10 µM
INSRR (human) = INSRR (human) (UniProt P14616); conditions: compound 0.5 µM; ATP 10 µM
CSNK1G2 (human) = CSNK1G2 (human) (UniProt P78368); conditions: compound 0.5 µM; ATP 10 µM
MATK (human) = MATK (human) (UniProt P42679); conditions: compound 0.5 µM; ATP 10 µM
CSNK1E (human) = CSNK1E (human) (UniProt P49674); conditions: compound 0.5 µM; ATP 10 µM
CSNK2A1 (human) = CSNK2A1 (human) (UniProt P68400); conditions: compound 0.5 µM; ATP 10 µM
AKT1 (human) = AKT1 (human) (UniProt P31749); conditions: compound 0.5 µM; ATP 10 µM
AKT1 (human), sequence (P31749 whole entry, looked up): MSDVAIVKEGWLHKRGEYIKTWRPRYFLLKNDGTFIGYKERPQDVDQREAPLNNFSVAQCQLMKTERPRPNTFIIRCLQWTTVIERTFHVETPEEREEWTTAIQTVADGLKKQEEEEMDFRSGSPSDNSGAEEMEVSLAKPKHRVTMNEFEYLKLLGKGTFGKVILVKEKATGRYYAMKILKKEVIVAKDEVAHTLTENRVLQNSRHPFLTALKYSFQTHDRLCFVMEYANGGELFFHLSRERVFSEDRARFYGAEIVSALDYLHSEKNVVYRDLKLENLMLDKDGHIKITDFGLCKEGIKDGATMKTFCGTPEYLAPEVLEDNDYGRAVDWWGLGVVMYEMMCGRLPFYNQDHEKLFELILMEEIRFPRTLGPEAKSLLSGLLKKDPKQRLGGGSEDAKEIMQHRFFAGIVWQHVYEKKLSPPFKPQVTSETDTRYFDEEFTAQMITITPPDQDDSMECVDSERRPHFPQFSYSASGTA

MAPK12 (human) = MAPK12 (human) (UniProt P53778); conditions: compound 0.5 µM; ATP 10 µM
MAPK12 (human), sequence (P53778 whole entry, looked up): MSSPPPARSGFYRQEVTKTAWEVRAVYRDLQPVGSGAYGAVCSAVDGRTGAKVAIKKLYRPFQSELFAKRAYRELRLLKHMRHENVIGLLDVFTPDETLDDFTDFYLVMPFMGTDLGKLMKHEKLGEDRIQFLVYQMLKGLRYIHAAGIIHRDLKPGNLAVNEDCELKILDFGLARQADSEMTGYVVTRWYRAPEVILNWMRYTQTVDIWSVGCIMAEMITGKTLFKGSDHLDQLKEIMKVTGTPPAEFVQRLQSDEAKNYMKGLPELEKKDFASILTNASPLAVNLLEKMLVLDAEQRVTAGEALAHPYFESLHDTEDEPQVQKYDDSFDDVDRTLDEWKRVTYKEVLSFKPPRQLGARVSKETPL

PKN1 (human) = PKN1 (human) (UniProt Q16512); conditions: compound 0.5 µM; ATP 10 µM
TNK2 (human) = TNK2 (human) (UniProt Q07912); conditions: compound 0.5 µM; ATP 10 µM
EPHB1 (human) = EPHB1 (human) (UniProt P54762); conditions: compound 0.5 µM; ATP 10 µM
PAK2 (human) = PAK2 (human) (UniProt Q13177); conditions: compound 0.5 µM; ATP 10 µM
SRPK3 (human) = SRPK3 (human) (UniProt Q9UPE1); conditions: compound 0.5 µM; ATP 10 µM
IGF1R (human) = IGF1R (human) (UniProt P08069); conditions: compound 0.5 µM
INSR (human) = INSR (human) (UniProt P06213); conditions: compound 0.5 µM; ATP 10 µM
EPHA5 (human) = EPHA5 (human) (UniProt P54756); conditions: compound 0.5 µM; ATP 10 µM
STK11 (human) = STK11 (human) (UniProt Q15831); conditions: compound 0.5 µM; ATP 10 µM
TAOK3 (human) = TAOK3 (human) (UniProt Q9H2K8); conditions: compound 0.5 µM; ATP 10 µM
PRKCG (human) = PRKCG (human) (UniProt P05129); conditions: compound 0.5 µM; ATP 10 µM
ZAP70 (human) = ZAP70 (human) (UniProt P43403); conditions: compound 0.5 µM; ATP 10 µM
ZAP70 (human), sequence (P43403 whole entry, looked up): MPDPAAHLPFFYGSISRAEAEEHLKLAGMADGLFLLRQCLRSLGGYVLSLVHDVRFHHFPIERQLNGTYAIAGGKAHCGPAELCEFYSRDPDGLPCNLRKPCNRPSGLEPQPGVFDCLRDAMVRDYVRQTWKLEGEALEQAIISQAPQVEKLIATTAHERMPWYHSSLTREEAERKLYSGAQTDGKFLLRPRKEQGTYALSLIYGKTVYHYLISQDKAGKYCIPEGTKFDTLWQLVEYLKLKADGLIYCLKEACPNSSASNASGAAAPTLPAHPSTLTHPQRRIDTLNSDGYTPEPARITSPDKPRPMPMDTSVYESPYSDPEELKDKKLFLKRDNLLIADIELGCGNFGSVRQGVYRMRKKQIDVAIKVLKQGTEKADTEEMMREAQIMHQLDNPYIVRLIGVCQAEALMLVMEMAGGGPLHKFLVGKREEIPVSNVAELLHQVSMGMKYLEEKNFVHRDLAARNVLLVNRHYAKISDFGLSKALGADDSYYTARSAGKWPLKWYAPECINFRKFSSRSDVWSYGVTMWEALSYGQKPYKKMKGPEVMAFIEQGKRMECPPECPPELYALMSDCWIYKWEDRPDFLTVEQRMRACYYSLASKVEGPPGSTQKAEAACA

FES (human) = FES (human) (UniProt P07332); conditions: compound 0.5 µM; ATP 10 µM
FES (human), sequence (P07332 whole entry, looked up): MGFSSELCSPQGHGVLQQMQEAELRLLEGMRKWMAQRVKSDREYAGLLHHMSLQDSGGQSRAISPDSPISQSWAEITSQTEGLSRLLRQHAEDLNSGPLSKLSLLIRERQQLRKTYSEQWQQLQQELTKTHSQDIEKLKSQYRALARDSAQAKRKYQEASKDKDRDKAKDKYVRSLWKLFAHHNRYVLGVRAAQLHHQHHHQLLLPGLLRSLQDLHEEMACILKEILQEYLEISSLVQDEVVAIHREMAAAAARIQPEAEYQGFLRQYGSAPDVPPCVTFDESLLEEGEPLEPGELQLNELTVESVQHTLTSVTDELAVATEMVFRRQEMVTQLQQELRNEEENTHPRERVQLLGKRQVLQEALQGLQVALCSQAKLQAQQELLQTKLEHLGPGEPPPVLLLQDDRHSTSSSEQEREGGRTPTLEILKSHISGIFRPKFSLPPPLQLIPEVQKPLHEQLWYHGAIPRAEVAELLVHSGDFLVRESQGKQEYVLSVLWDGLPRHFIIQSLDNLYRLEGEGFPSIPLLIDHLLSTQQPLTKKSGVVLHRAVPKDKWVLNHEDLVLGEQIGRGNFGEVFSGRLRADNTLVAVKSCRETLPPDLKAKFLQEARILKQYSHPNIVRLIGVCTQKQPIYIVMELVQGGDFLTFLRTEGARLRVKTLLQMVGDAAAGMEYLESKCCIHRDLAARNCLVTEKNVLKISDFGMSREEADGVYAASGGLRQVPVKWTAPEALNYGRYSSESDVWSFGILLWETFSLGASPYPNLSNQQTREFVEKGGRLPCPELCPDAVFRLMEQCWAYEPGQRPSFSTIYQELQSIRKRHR

CAMK1 (human) = CAMK1 (human) (UniProt Q14012); conditions: compound 0.5 µM; ATP 10 µM
MAPK8 (human) = MAPK8 (human) (UniProt P45983); conditions: compound 0.5 µM; ATP 10 µM
GRK5 (human) = GRK5 (human) (UniProt P34947); conditions: compound 0.5 µM; ATP 10 µM
MAPKAPK3 (human) = MAPKAPK3 (human) (UniProt Q16644); conditions: compound 0.5 µM; ATP 10 µM
EPHB4 (human) = EPHB4 (human) (UniProt P54760); conditions: compound 0.5 µM; ATP 10 µM
EPHB4 (human), sequence (P54760 whole entry, looked up): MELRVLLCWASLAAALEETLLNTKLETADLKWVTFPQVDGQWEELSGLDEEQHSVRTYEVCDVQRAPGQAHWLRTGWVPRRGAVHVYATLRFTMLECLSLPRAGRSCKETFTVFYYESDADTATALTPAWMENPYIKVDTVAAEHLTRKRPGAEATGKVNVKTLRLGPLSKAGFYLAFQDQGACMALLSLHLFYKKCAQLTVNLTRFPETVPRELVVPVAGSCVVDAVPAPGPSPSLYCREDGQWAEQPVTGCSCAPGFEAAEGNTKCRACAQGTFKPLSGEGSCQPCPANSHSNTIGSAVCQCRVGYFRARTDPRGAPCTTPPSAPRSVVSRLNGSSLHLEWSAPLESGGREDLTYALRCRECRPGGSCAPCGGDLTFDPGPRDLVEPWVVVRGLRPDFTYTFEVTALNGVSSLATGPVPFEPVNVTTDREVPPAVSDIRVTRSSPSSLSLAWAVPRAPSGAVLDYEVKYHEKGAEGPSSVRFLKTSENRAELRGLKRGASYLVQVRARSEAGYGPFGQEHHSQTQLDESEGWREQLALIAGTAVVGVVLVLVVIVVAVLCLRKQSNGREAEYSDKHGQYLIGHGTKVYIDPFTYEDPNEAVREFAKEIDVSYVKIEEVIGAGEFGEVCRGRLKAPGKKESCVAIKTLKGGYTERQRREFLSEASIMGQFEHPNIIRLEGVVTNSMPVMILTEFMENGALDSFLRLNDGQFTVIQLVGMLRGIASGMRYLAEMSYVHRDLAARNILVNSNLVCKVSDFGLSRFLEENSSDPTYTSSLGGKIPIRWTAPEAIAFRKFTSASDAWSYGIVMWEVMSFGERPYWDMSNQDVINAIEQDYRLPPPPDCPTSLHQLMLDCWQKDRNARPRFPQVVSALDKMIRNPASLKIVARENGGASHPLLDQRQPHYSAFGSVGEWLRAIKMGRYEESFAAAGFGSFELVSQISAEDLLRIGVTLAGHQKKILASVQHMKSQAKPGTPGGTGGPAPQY

[1] = molecular target: TYK2 JH1 catalytic (human) (UniProt P29597); conditions: compound 0.5 µM; ATP 10 µM
EPHA7 (human) = EPHA7 (human) (UniProt Q15375); conditions: compound 0.5 µM; ATP 10 µM
TAOK1 (human) = TAOK1 (human) (UniProt Q7L7X3); conditions: compound 0.5 µM; ATP 10 µM
CAMK1D (human) = CAMK1D (human) (UniProt Q8IU85); conditions: compound 0.5 µM; ATP 10 µM
CDK2 CCNA2 (human) = CDK2 CCNA2 (human) (UniProt P24941+P20248); conditions: compound 0.5 µM
CDK2 CCNA2 (human), sequence (P20248 whole entry, looked up, other chains not shown): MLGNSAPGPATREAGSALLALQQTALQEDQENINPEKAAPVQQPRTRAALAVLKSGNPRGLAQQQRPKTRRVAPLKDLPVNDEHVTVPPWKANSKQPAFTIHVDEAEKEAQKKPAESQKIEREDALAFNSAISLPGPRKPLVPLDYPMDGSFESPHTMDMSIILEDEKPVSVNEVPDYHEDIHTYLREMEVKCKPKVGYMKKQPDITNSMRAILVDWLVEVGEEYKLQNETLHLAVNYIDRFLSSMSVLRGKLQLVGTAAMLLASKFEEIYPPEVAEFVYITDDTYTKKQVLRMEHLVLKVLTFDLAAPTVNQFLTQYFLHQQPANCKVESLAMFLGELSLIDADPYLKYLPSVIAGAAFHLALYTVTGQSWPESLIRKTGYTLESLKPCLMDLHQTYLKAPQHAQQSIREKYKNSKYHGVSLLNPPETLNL

PIM3 (human) = PIM3 (human) (UniProt Q86V86); conditions: compound 0.5 µM; ATP 10 µM
CAMK2A (human) = CAMK2A (human) (UniProt Q9UQM7); conditions: compound 0.5 µM; ATP 10 µM
MAP3K8 (human) = MAP3K8 (human) (UniProt P41279); conditions: compound 0.5 µM; ATP 10 µM
MAP3K10 (human) = MAP3K10 (human) (UniProt Q02779); conditions: compound 0.5 µM; ATP 10 µM
FGFR1 (human) = FGFR1 (human) (UniProt P11362); conditions: compound 0.5 µM; ATP 10 µM

CDK1 CCNB1 (human), sequence (P06493 whole entry, looked up): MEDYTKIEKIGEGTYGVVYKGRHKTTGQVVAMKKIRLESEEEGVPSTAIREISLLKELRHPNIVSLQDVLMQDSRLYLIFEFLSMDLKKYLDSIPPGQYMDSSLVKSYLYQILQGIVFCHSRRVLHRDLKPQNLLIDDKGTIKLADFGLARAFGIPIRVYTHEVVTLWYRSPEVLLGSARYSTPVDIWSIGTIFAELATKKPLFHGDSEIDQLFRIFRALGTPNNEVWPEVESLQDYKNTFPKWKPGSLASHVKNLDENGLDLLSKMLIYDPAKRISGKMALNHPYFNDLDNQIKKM
CDK1 CCNB1 (human), sequence (P14635 whole entry, looked up): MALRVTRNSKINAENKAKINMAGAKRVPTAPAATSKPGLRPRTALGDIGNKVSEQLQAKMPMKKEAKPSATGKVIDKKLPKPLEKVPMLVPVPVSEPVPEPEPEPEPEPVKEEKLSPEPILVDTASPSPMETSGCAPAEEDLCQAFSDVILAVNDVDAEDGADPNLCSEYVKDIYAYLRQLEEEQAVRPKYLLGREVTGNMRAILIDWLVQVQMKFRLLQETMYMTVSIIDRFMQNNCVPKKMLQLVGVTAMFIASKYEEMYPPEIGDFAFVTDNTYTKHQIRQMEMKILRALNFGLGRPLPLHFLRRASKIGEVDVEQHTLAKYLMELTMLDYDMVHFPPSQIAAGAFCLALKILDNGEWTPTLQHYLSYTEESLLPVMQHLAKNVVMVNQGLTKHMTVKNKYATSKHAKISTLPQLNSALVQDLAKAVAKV

SMILES: O=C1NC(=O)c2c1c1c3ccccc3[nH]c1c1[nH]c3cc(Br)ccc3c21
- residual activity (WNK3 (human)): 92.3%
- residual activity (PLK2 (human)): 93.7%
- residual activity (CDK1 CCNB1 (human); ATP 10 µM): 47.8%
- residual activity (FGFR4 (human)): 90.6%
- residual activity (CDC42BPA (human)): 97.5%
- residual activity (RPS6KA4 KD2 (human)): 75.9%
- residual activity (CAMK2B (human)): 80.3%
- residual activity (INSRR (human)): 85.8%
- residual activity (CSNK1G2 (human)): 89.5%
- residual activity (MATK (human)): 97.3%
- residual activity (CSNK1E (human)): 82.2%
- residual activity (CSNK2A1 (human)): 93.1%
- residual activity (AKT1 (human)): 101%
- residual activity (MAPK12 (human)): 100%
- residual activity (PKN1 (human)): 66%
- residual activity (TNK2 (human)): 97.4%
- residual activity (EPHB1 (human)): 95.5%
- residual activity (PAK2 (human)): 101%
- residual activity (SRPK3 (human)): 89.2%
- residual activity (IGF1R (human); ATP 10 µM): 15%
- residual activity (INSR (human)): 86.4%
- residual activity (EPHA5 (human)): 90.5%
- residual activity (STK11 (human)): 90.2%
- residual activity (TAOK3 (human)): 82.3%
- residual activity (PRKCG (human)): 76.6%
- residual activity (ZAP70 (human)): 104%
- residual activity (FES (human)): 88.1%
- residual activity (CAMK1 (human)): 99%
- residual activity (MAPK8 (human)): 85.2%
- residual activity (GRK5 (human)): 97%
- residual activity (MAPKAPK3 (human)): 118%
- residual activity (EPHB4 (human)): 86.5%
- residual activity [1]: 81.1%
- residual activity (EPHA7 (human)): 95.3%
- residual activity (TAOK1 (human)): 68.4%
- residual activity (CAMK1D (human)): 92.2%
- residual activity (CDK2 CCNA2 (human); ATP 10 µM): 52.5%
- residual activity (PIM3 (human)): 4.69%
- residual activity (CAMK2A (human)): 78.3%
- residual activity (MAP3K8 (human)): 89%
- residual activity (MAP3K10 (human)): 70.4%
- residual activity (FGFR1 (human)): 85.3%

SMILES: O=c1[nH]c2ccccc2n1C1CCN(Cc2ccc(-c3nc4cc5[nH]cnc5cc4nc3-c3ccccc3)cc2)CC1
- residual activity (WNK3 (human)): 106%
- residual activity (PLK2 (human)): 95.5%
- residual activity (CDK1 CCNB1 (human)): 85%
- residual activity (FGFR4 (human)): 97.2%
- residual activity (CDC42BPA (human)): 105%
- residual activity (RPS6KA4 KD2 (human)): 98.8%
- residual activity (CAMK2B (human)): 104%
- residual activity (INSRR (human)): 101%
- residual activity (CSNK1G2 (human)): 101%
- residual activity (MATK (human)): 102%
- residual activity (CSNK1E (human)): 107%
- residual activity (CSNK2A1 (human)): 94.3%
- residual activity (AKT1 (human)): 114%
- residual activity (MAPK12 (human)): 93.1%
- residual activity (PKN1 (human)): 90.3%
- residual activity (TNK2 (human)): 92.3%
- residual activity (EPHB1 (human)): 104%
- residual activity (PAK2 (human)): 99.2%
- residual activity (SRPK3 (human)): 107%
- residual activity (IGF1R (human)): 91.2%
- residual activity (INSR (human)): 102%
- residual activity (EPHA5 (human)): 102%
- residual activity (STK11 (human)): 95.6%
- residual activity (TAOK3 (human)): 111%
- residual activity (PRKCG (human)): 92.2%
- residual activity (ZAP70 (human)): 97.3%
- residual activity (FES (human)): 101%
- residual activity (CAMK1 (human)): 95.1%
- residual activity (MAPK8 (human)): 89.6%
- residual activity (GRK5 (human)): 109%
- residual activity (MAPKAPK3 (human)): 104%
- residual activity (EPHB4 (human)): 96.4%
- residual activity [1]: 101%
- residual activity (EPHA7 (human)): 109%
- residual activity (TAOK1 (human)): 102%
- residual activity (CAMK1D (human)): 107%
- residual activity (CDK2 CCNA2 (human)): 98%
- residual activity (PIM3 (human)): 106%
- residual activity (CAMK2A (human)): 109%
- residual activity (MAP3K8 (human)): 95.2%
- residual activity (MAP3K10 (human)): 102%
- residual activity (FGFR1 (human)): 102%

SMILES: N#C/C(=C1/Nc2ccccc2S1)c1ccnc(NCCc2cccnc2)n1
- residual activity (WNK3 (human)): 81.3%
- residual activity (PLK2 (human)): 95.8%
- residual activity (CDK1 CCNB1 (human); ATP 10 µM): 96.8%
- residual activity (FGFR4 (human)): 101%
- residual activity (CDC42BPA (human)): 99.6%
- residual activity (RPS6KA4 KD2 (human)): 107%
- residual activity (CAMK2B (human)): 97.3%
- residual activity (INSRR (human)): 92.2%
- residual activity (CSNK1G2 (human)): 87%
- residual activity (MATK (human)): 89.8%
- residual activity (CSNK1E (human)): 74.9%
- residual activity (CSNK2A1 (human)): 22.1%
- residual activity (AKT1 (human)): 104%
- residual activity (MAPK12 (human)): 96.7%
- residual activity (PKN1 (human)): 96.3%
- residual activity (TNK2 (human)): 42.8%
- residual activity (EPHB1 (human)): 90.9%
- residual activity (PAK2 (human)): 103%
- residual activity (SRPK3 (human)): 89.5%
- residual activity (IGF1R (human); ATP 10 µM): 100%
- residual activity (INSR (human)): 100%
- residual activity (EPHA5 (human)): 113%
- residual activity (STK11 (human)): 79.4%
- residual activity (TAOK3 (human)): 87.5%
- residual activity (PRKCG (human)): 92.2%
- residual activity (ZAP70 (human)): 94.5%
- residual activity (FES (human)): 92.8%
- residual activity (CAMK1 (human)): 101%
- residual activity (MAPK8 (human)): 87.6%
- residual activity (GRK5 (human)): 93.8%
- residual activity (MAPKAPK3 (human)): 102%
- residual activity (EPHB4 (human)): 99.7%
- residual activity [1]: 83.2%
- residual activity (EPHA7 (human)): 99.4%
- residual activity (TAOK1 (human)): 98%
- residual activity (CAMK1D (human)): 108%
- residual activity (CDK2 CCNA2 (human); ATP 10 µM): 94.4%
- residual activity (PIM3 (human)): 3.74%
- residual activity (CAMK2A (human)): 105%
- residual activity (MAP3K8 (human)): 96%
- residual activity (MAP3K10 (human)): 79.6%
- residual activity (FGFR1 (human)): 99%
